{"source": "patent US20220016174A1", "about": "“FOETAL MESENCHYMAL STEM CELL COMPOSITION OF ALLOGENIC ORGIN, TREATMENT METHOD AND USE THEREOF IN MASTITIS IN MILK-PRODUCING ANIMALS, INCLUDING CATTLE” (UNIVERSIDAD DE CHILE, priority 2018, published 2022)", "key": {"S. aureus": {"system": "S. aureus", "assay": "Bacteriological analysis (CFU) in milk of cows challenged with S. aureus", "assay_type": "in vivo, Staphylococcus aureus", "method": "1 mL of PBS was inoculated into the right quarters as a control. The NEG group (without therapy) was treated on days 4 and 10 with a 5 mL Ringer Lactate solution via the teat canal in the two infected quarters. The ATB group (antibiotic therapy) was treated with a commercial suspension of 50 mg of pirlimycin on experimental days 4 and 5 via the teat canal in the two infected quarters. The MSC group (MSC therapy) was administered with a 2.5×10^7 suspension of MSC in 3 ml of Lactated Ringer via the teat canal in the two infected quarters. From the day of the challenge and daily during 15 days, the cows were clinically evaluated and milk samples were collected daily to determine SCC and CFU (FIG. 2B). The clinical evaluation and the collection of milk samples were carried out as detailed below.\nMilk samples prior to milking were collected aseptically from all cows following the protocols of the International Dairy Federation (1985) on three consecutive days prior to the experimental challenge (FIG. 2B). Briefly, before milking, the quarters and teats were cleaned using a brush or washed with water in case of excessive presence of mud or manure. Then the teats and especially the tips of the teats were disinfected using paper towels with 70% alcohol. Three or four milk streams were discarded to reduce the possibility of contamination with pathogens present in the teat canal. Each of the teats, starting with the most distant ones, were disinfected again using a 70% alcohol swab. Previously labelled sample bottles were positioned at a 45-degree angle below the nipple without touching it to prevent contamination. Nearby teats were first sampled and then distant teats, filling one third of the vial. The samples were refrigerated or frozen for analysis of SCC or CFU, respectively. Only cows with three negative consecutive cultures were used in the study. […]\nFrom the day of the challenge and daily for 15 days, milk samples were collected for determination of CFU. The CFU values were subsequently expressed as a linear score (LS-CFU) by means of logarithmic transformation (LS=LOGN). […]"}, "[1]": {"system": "Holstein Friesian cows challenged with S. aureus", "assay": "Clinical and productive variables in cows challenged with S. aureus (induced mastitis)", "assay_type": "in vivo"}}, "data": [{"smiles": "CC[C@@H]1CCN[C@H](C(=O)N[C@@H]([C@H]2O[C@H](SC)[C@H](O)[C@@H](O)[C@H]2O)[C@H](C)Cl)C1", "note": "[ATB, pirlimycin]", "values": [{"measurement": "LS-CFU (linear score of CFU in milk)", "setting": "S. aureus; day 3 post-challenge (before treatment on day 4)", "result": "−0.7"}, {"measurement": "LS-CFU (linear score of CFU in milk)", "setting": "S. aureus; day 8 post-challenge", "result": "−0.7"}, {"measurement": "LS-CFU (linear score of CFU in milk)", "setting": "S. aureus; day 9 post-challenge", "result": "−0.7"}, {"measurement": "average daily milk production", "setting": "[1]", "result": "16.7±0.8", "unit": "I"}, {"measurement": "decrease in milk production between days 5 and 7", "setting": "[1]", "result": 2.1}, {"measurement": "Milk yield reduction days 5-7 (Its.)", "setting": "[1]; days 5-7", "result": 2.1, "unit": "Its."}, {"measurement": "Milk yield (Its.)", "setting": "[1]; n=5 each group, mean ± SD", "result": "16.7 ± 0.8", "unit": "Its."}, {"measurement": "Rectal temperature (° C.)", "setting": "[1]; n=5 each group, mean ± SD", "result": "38.1 ± 0.3", "unit": "°C"}, {"measurement": "Respiratory rate (bpm)", "setting": "[1]; n=5 each group, mean ± SD", "result": "28.6 ± 2.5", "unit": "bpm"}, {"measurement": "Ruminal frequency (in 2 min)", "setting": "[1]; n=5 each group, mean ± SD", "result": "2.6 ± 0.3"}, {"measurement": "Termography BL (° C.)", "setting": "[1]; n=5 each group, mean ± SD", "result": "34.3 ± 0.6", "unit": "°C"}, {"measurement": "Termography BR (° C.)", "setting": "[1]; n=5 each group, mean ± SD", "result": "34.2 ± 0.5", "unit": "°C"}, {"measurement": "Termography FL (° C.)", "setting": "[1]; n=5 each group, mean ± SD", "result": "33.8 ± 0.7", "unit": "°C"}, {"measurement": "Termography FR(° C.)", "setting": "[1]; n=5 each group, mean ± SD", "result": "33.7 ± 0.7", "unit": "°C"}]}]}
